# Several values for one entry are separate records, joined by “and”; a condition that tells them apart may be missing. Identical values can stand only once. Like-named read-outs stand apart in the source and are kept apart here.
# What was measured:
# [1] = format: in vivo; conditions: trough plasma, individual patients
# Procedure: Peripheral blood w ill be sent to Lab21 for anti-retroviral drug levels on Cycle 1 D ay 1 Pre-
# treatment, Cycle 1 Day 15 and Cycle 4 D ay 22/Cycle 5 Day 1. […]
# • 5mls of venous blood should be collected into a K2- ED TA BD vacutainer
# • Samples should be inverted several times to ensure adequate mix ing. […]
# • Samples should be stored at - 200C. […]
# Ant i-retroviral drug lev els
# • Samples to be collected Cycle 1 Day 1 Pre- treatment and Cycle 1 Day 15 and Cycle 4 Day […]
# • 2x 1000 µl of plasma should be aliquoted to 1.5 ml plastic screw top tubes.
# • Samples should be stored at - 200C (or below) for 24 hours befor e sending. […]
# Therapeutic drug monitoring of the cART therapies was undertaken by Lab 21 Ltd (Cambridge, UK). Blood plasma was prepared from 5 ml of venous blood collected in K2-EDTA BD vacutainer tubes from kits provided by Covance. Samples were centrifuged at 2000 g for 20 minutes at room temperature, frozen at sites, packed in dry ice and sent to Lab 21 Ltd (Cambridge, UK) where they were stored at -20°C prior to analysis.
# [2] = test system: Kaposi's sarcoma; parameters: method as in Tulpule, et al. 2002; conditions: 100mg/m2 q 2 weeks, second-line; ref Tulpule, et al. 2002; cited from earlier work
# [3] = test system: CYPs 3A, 1A and 2C9; parameters: method as in Investigator Brochure; conditions: protocol background; ref Investigator Brochure; cited from earlier work
# [4] = format: in vivo; conditions: trough plasma, Cycle 5 Day 15, individual patient
# [5] = test system: non-small cell lung cancer; parameters: method as in SCART protocol 7.3.1; conditions: selumetinib 75mg bd + docetaxol 75mg/m2 iv day 1 every 21 days (combination arm) or chemotherapy alone arm; ref SCART protocol 7.3.1; cited from earlier work
# [6] = Cycle 1 Day 1 (pre-selumetinib), selumetinib starting dose 75 mg bd
# [7] = Cycle 1 Day 15, selumetinib starting dose 75 mg bd
# [8] = Cycle 1 Day 1 (pre-selumetinib), selumetinib starting dose 50 mg bd
# [9] = Cycle 1 Day 15, selumetinib starting dose 50 mg bd
# [10] = Cycle 5 Day 1, selumetinib starting dose 50 mg bd
# [11] = Cycle 5 Day 1, selumetinib starting dose 75 mg bd
"Antiretroviral drug Concentration [1, 8]","Antiretroviral drug Concentration [1, 9]","Antiretroviral drug Concentration [1, 10]",SMILES,"Antiretroviral drug Concentration [1, 6]","Antiretroviral drug Concentration [1, 7]",also measured
–,–,–,Nc1ccn([C@@H]2CS[C@H](CO)O2)c(=O)n1 [Lamivudine],817 ng/mL,512 ng/mL,–
–,–,–,Nc1nc(NC2CC2)c2ncn([C@H]3C=C[C@@H](CO)C3)c2n1 [Abacavir],1060 ng/mL,246 ng/mL,–
–,–,–,CC(=O)O[C@H]1C(=O)[C@@]2(C)[C@H]([C@H](OC(=O)c3ccccc3)[C@]3(O)C[C@H](OC(=O)[C@H](O)[C@@H](NC(=O)c4ccccc4)c4ccccc4)C(C)=C1C3(C)C)[C@]1(OC(C)=O)CO[C@@H]1C[C@@H]2O [paclitaxel],–,–,median PFS [2]: 39 weeks; response rate [2]: 56%
516 ng/mL and 94 ng/mL,462 ng/mL and 575 ng/mL and 246 ng/mL,328 ng/mL and 566 ng/mL,CC(C)c1nc(CN(C)C(=O)N[C@H](C(=O)N[C@@H](Cc2ccccc2)C[C@H](O)[C@H](Cc2ccccc2)NC(=O)OCc2cncs2)C(C)C)cs1 [Ritonavir],364 ng/mL and 342 ng/mL,1585 ng/mL and 564 ng/mL,"Antiretroviral drug Concentration [1, 11]: 431 ng/mL"
–,–,–,Cn1cnc2c(F)c(Nc3ccc(Br)cc3Cl)c(C(=O)NOCCO)cc21 [AZD6244],–,–,"induction of CYPs 3A, 1A and 2C9 [3]: weak"
133 ng/mL and 15 ng/mL and 90 ng/mL,51 ng/mL and 234 ng/mL and 43 ng/mL,55 ng/mL,C[C@H](Cn1cnc2c(N)ncnc21)OCP(=O)(O)O [Tenofovir],84 ng/mL and 30 ng/mL and 60 ng/mL and 130 ng/mL and 90 ng/mL,123 ng/mL and 46 ng/mL and 239 ng/mL and 40 ng/mL,"Antiretroviral drug Concentration [1, 11]: 135 ng/mL and 104 ng/mL; Antiretroviral drug Concentration ([4]; selumetinib starting dose 50 mg bd): 230 ng/mL; Antiretroviral drug Concentration ([4]; selumetinib starting dose 75 mg bd): 143 ng/mL"
–,–,–,CC(=O)O[C@@]12CO[C@@H]1C[C@H](O)[C@@]1(C)C(=O)[C@H](O)C3=C(C)[C@@H](OC(=O)[C@H](O)[C@@H](NC(=O)OC(C)(C)C)c4ccccc4)C[C@@](O)([C@@H](OC(=O)c4ccccc4)[C@H]21)C3(C)C [docetaxol],–,–,"febrile neutropenia, patients [5]: 0/42"
–,–,–,COC(=O)N[C@H](C(=O)N[C@@H](Cc1ccccc1)[C@@H](O)CN(Cc1ccc(-c2ccccn2)cc1)NC(=O)[C@@H](NC(=O)OC)C(C)(C)C)C(C)(C)C [Atazanavir],758 ng/mL,5797 ng/mL,–

SMILES,"Antiretroviral drug Concentration [1, 8]","Antiretroviral drug Concentration [1, 9]","Antiretroviral drug Concentration [1, 10]","Antiretroviral drug Concentration [1, 6]","Antiretroviral drug Concentration [1, 7]",also measured
O=C1Nc2ccc(Cl)cc2[C@@](C#CC2CC2)(C(F)(F)F)O1 [Efavirenz],4545 ng/mL,4180 ng/mL,6257 ng/mL,3378 ng/mL,3139 ng/mL,–

# From publication PMC11921695 (BMC Cancer, 2025)
